“And” between values parts separate entries of the source, which are not always exact repeats. Equal values may be shown once. Blank lines part the entries; values can stand above or below the compound they belong to.
Assays:
ovariectomized mice = experiment: Peripheral tissue pathology (H&E of liver, kidney, heart); format: in vivo; details: 24 h after single IP injection; 0.5 or 5 mg/kg ISP358-2, 0.05 mg/kg DPN
Description: Assessment of Potential Peripheral Pathology. To assess possible toxicity of ISP358-2 treatment to peripheral organs, ovariectomized mice received a single intraperitoneal injection of vehicle or ISP358-2, and liver, kidney, and heart tissues were collected 24 hours later. […] Tissues were fixed in 10% formalin buffered solution for 24 hours. Twenty specimens were processed and analyzed. Each specimen contained three pieces of tissue. The tissues from each animal was transferred to a labeled cassette and processed on an automated tissue processor following standard procedures. The tissues were then embedded in paraffin wax. No specific orientation of the tissue was performed. Four-micron sections were cut from each paraffin block and placed onto a slide. The slides were then stained using hematoxylin and cosin (H&E) on an automated stainer (FIGS. 13A-13L). The slides were then examined by a pathologist (ACM) who is board certified in anatomical pathology by the American Board of Pathology. All specimens contained three tissue samples corresponding to liver, kidney, and heart. In some instances, portions of adjacent tissues were also present. […] For heart, the myocytes and coronary vessels were examined, (2) evidence of inflammation was evaluated including hepatitis, glomerulonephritis, interstitial nephritis, and myocarditis, and (3) evidence of ischemic changes was examined. […]

[1] = molecular target: T1, human ER Beta ligand-binding domain (LBD) (Homo sapiens, UniProt Q92731); experiment: TR-FRET competitive binding assay, ERβ LBD; details: displacement of fluorescent tracer from ERβ LBD
T1 construct: purchased Thermo Fisher Scientific
T1 sequence (Q92731 264-498 limits assumed): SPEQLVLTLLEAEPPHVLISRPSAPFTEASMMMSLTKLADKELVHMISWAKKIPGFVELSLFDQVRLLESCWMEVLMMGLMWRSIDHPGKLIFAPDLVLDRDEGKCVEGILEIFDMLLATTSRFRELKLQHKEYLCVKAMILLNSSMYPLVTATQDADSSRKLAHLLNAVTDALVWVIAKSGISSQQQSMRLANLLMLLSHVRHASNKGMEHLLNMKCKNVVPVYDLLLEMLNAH

ERα [2] = molecular target: T2, ERα (Homo sapiens, UniProt P03372); experiment: Cell-based luciferase reporter assay, full length ERα, agonist mode; details: 22 h
T2 construct: employs a full length and native ER (comprised of an ER LBD and an ER DBD)
T2 sequence (P03372 1-595): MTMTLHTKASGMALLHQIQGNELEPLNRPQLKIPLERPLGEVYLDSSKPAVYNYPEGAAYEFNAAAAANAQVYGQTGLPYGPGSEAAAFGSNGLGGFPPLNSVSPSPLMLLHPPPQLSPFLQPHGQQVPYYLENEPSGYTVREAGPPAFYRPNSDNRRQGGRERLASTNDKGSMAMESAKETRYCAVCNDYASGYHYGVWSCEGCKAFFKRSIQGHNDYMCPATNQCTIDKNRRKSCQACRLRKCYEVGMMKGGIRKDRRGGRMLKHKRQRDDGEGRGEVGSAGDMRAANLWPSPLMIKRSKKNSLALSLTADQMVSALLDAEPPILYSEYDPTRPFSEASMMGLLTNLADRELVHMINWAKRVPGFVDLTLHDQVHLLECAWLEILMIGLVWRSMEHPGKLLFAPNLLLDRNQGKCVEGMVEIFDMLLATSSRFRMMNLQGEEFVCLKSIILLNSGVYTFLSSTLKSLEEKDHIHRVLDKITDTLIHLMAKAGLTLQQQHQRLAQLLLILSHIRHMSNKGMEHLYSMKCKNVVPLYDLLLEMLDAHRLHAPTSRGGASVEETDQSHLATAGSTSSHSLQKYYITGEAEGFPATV

ERα [3] = molecular target: T2, ERα; experiment: Cell-based luciferase reporter assay, full length ERα, antagonist mode
[4] = full length ERα, read-out: ERα agon. IC50
[5] = inhibition of estradiol-induced transcription, read-out: ERα antagon. IC50

SMILES: N#CC(Cc1ccc(O)cc1)c1ccc(O)cc1 (stereo not drawn) [DPN, 2,3-bis(4-hydroxyphenyl)-propionitrile, reference compound]
histological abnormalities / peripheral toxicity in liver, kidney, heart (ovariectomized mice): Histological abnormalities were not detected

IC50 [1]: 1.57 µM
SMILES: ON=C1CCC(c2ccc(O)cc2)CC1 (stereo not drawn) [Compound 4, 4-(4-Hydroxyphenyl) cyclohexanone oxime]

IC50 [1]: 7.25 µM and 7.52 µM
SMILES: Oc1ccc([C@H]2CC[C@H](O)CC2)cc1 [Compound 2, trans-4-(4-Hydroxycyclohexyl) phenol]

IC50 [1]: 1 µM
SMILES: C=C1CCC(c2ccc(O)c(C=O)c2)CC1 [Compound 9, 2-Hydroxy-5-(4-methylenecyclohexyl) benzaldehyde]

SMILES: OCC=C1CCC(c2ccc(O)cc2)CC1 (stereo not drawn) [Compound 24, 4-(4′-Hydroxyphenyl) (2-hydroxyethylidene) cyclohexane]
IC50 [1]: 0.676 µM
IC50 ([1]; listed as (±)-24): 0.68 ± 0.11 µM

IC50 (ERα [2]; [4]): > 20 µM
IC50 (ERα [3]; [5]): > 10 µM
SMILES: OCC1CC=C(c2ccc(O)cc2)CC1 (racemic) [Compound 18, 4′-(Hydroxymethyl)-2′,3′,4′,5′-tetrahydro-[1,1′-biphenyl]-4-ol]

SMILES: OCC1CCC(c2ccc(O)cc2)CC1 (stereo not drawn) [15:16 (3:2), 4-(4-(Hydroxymethyl)cyclohexyl) phenol]
IC50 (ERα [2]; ERα agon. IC50, full length ERα): > 100 µM
IC50 (ERα [3]): > 10 µM

IC50 [1]: 0.25 ± 0.056 µM
SMILES: Oc1ccc([C@]23CC[C@H](CC2)CO3)cc1 [Compound 17, 1-(4-Hydroxyphenyl)-2-oxabicyclo [2.2.2] octane]

IC50 (ERα [2]; [4]): > 10 µM
IC50 (ERα [3]; [5]): > 10 µM
SMILES: C=C1CCC(c2ccc(O)cc2)CC1 [Compound 7, 4-(4-Hydroxyphenyl) methylenecyclohexane]

IC50 (ERα [2]; [4]): > 50 µM
IC50 (ERα [3]; [5]): > 10 µM
SMILES: OCCC1CCC(c2ccc(O)cc2)CC1 (stereo not drawn) [Compound 25, 4-[4-(2-Hydroxyethyl)cyclohexyl] phenol]

IC50 [1]: 2.7 µM
SMILES: OCC1(O)CCC(c2ccc(O)cc2)CC1 (single isomer, unassigned) [Compound 12, 4-(4-Hydroxy-4-(hydroxymethyl)cyclohexyl) phenol]

IC50 [1]: 0.225 ± 0.094 µM
SMILES: C=C1CCC(c2ccc(O)c(/C=N/O)c2)CC1 [Compound 10, 2-Hydroxy-5-(4-methylenecyclohexyl) benzaldehyde oxime]

IC50 [1]: 19 µM
SMILES: O=C1CCC(c2ccc(O)cc2)CC1 [Compound 1, 4-(4-hydroxyphenyl) cyclohexanone]

IC50 (ERα [2]; [4]): > 10 µM
IC50 (ERα [3]; [5]): > 10 µM
SMILES: CC1CCC(c2ccc(O)cc2)CC1 (mixture of isomers) [Compound 8, 4-(4-Methylcyclohexyl) phenol]

IC50 [1]: 6.29 µM
SMILES: C[C@]1(O)CC[C@@H](c2ccc(O)cc2)CC1 [Compound 3, 4-(4-Hydroxy-4-methylcyclohexyl) phenol]

Reference: patent US20240327421A1 (Marquette University, priority 2017, published 2024)
